Reference: patent publication US20250019339A1, “SOLVENT COMPOUNDS FOR USE AS REPLACEMENTS FOR SLOW EVAPORATING SOLVENTS” (TBF ENVIRONMENTAL TECHNOLOGY INC., priority 2018, published 2025)

What was measured:
Assay type in all cases: physicochemical
Evaporation rate = assay: Evaporation rate
Boiling point = assay: Boiling point
Specific gravity = assay: Specific gravity
[1] = Flash point, PMCC closed cup; conditions: PMCC (Penske Martin Closed Cup)
Experimental: (§1) (420.8° F.) • Flash Point: 85.5° C.

Vapour pressure = conditions: @25° C.
Kauri-Butanol value = assay: Kauri-Butanol value
[2] = Sustained combustion tests
Experimental: as §1

Q: With `CCCCC(CC)COC(=O)OC` (stereo not shown) [BibaSol, 2-ethylhexyl methyl carbonate] as the compound, how does the Evaporation rate (Evaporation rate) read?
A: 0.04

Q: What about the “Boiling Point” value (Boiling point) of the same compound?
A: 216 °C

Q: And the “Specific Gravity” value (Specific gravity)?
A: 0.916

Q: And the “Flash Point” value [1]?
A: 85.5 °C

Q: What about the Vapour pressure (Vapour pressure) of the same compound?
A: 0.09 mm Hg

Q: What about the “Kauri-Butanol Value” (Kauri-Butanol value) of the same compound?
A: 77.5

Q: What about the Sustained combustion [2] of the same compound?
A: did not sustain combustion
